{"source": "patent US20020137929A1", "about": "“1 - (3-heterocyclylphenyl) isothiourea, -isourea, -guanidine and -amidine herbicidal agents” (Intellectual Property Department, BASF Aktiengesellschaft, priority 1998, published 2002)", "key": {"ORYSAT (Rice, Tebonnet)": {"system": "ORYSAT (Rice, Tebonnet)", "experiment": "Preemergence herbicidal evaluation", "assay_type": "in vivo, Oryza sativa, (L.) Tebonnet", "conditions": "preemergence, rated 4-5 weeks after treatment, 0-9 scale", "outline": "(§1)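 Preemergence soil application of compound, sprayed in aqueous acetone at rates equivalent to about 0.0156 to 0.500 kg per hectare onto freshly sown cups. Plant response was judged by eye on a 0-9 scale four to five weeks later.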"}, "AMBEL (Ragweed, Common) [1]": {"system": "AMBEL (Ragweed, Common)", "experiment": "Preemergence herbicidal evaluation", "assay_type": "in vivo, Ambrosia artemisifolia", "conditions": "preemergence, rated 4-5 weeks after treatment, 0-9 scale", "outline": "as §1"}, "CASOB (Sicklepod) [2]": {"system": "CASOB (Sicklepod)", "experiment": "Preemergence herbicidal evaluation", "assay_type": "in vivo, Cassia obtusifolia", "conditions": "preemergence, rated 4-5 weeks after treatment, 0-9 scale", "outline": "as §1"}, "[3]": {"system": "GLXMAW (Soybean, Williams)", "experiment": "Preemergence herbicidal evaluation", "assay_type": "in vivo, Glycine max, (L.) Merr. cv Williams", "conditions": "preemergence, rated 4-5 weeks after treatment, 0-9 scale", "outline": "as §1"}, "[4]": {"system": "SAGPY (Arrowhead (Pygmaea))", "experiment": "Preemergence weed control under flooded paddy conditions", "assay_type": "in vivo, Sagittaria pygmaea", "conditions": "rated 3-4 weeks after treatment", "outline": "(§2)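 Greenhouse paddy assay. Acetone/water (50/50 v/v) solutions dosed into flood water, equivalent to about 0.0313 to 0.500 kg/ha active ingredient, over seeds planted 0.5 cm deep in silt loam. Score: 0-9 visual, based on stand, vigor, malformation, size and chlorosis, 3 to 4 weeks after treatment.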"}, "[5]": {"system": "CHEAL (Lambsquarters, Common)", "experiment": "Preemergence herbicidal evaluation", "assay_type": "in vivo, Chenopodium album", "conditions": "preemergence, rated 4-5 weeks after treatment, 0-9 scale", "outline": "as §1"}, "CASOB (Sicklepod) [6]": {"system": "CASOB (Sicklepod)", "experiment": "Postemergence herbicidal evaluation", "assay_type": "in vivo, Cassia obtusifolia", "conditions": "postemergence", "outline": "(§3)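 ~2-wk seedlings; postemergence spray, 40 psi; vehicle 1:1 acetone:water + 0.5% Tween 20; rate ≈0.0156–0.500 kg/ha; greenhouse hold; scored 4–5 wk after treatment, 0–9 scale vs control; repeat tests averaged.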"}, "[7]": {"system": "IPOHE (Morningglory, Ivyleaf)", "experiment": "Preemergence herbicidal evaluation", "assay_type": "in vivo, Ipomoea hederacea", "conditions": "preemergence, rated 4-5 weeks after treatment, 0-9 scale", "outline": "as §1"}, "[8]": {"system": "IPOHE (Morningglory, Ivyleaf)", "experiment": "Postemergence herbicidal evaluation", "assay_type": "in vivo, Ipomoea hederacea", "conditions": "postemergence", "outline": "as §3"}, "[9]": {"system": "GLXMAW (Soybean, Williams)", "experiment": "Postemergence herbicidal evaluation", "assay_type": "in vivo, Glycine max, (L.) Merr. cv Williams", "conditions": "postemergence", "outline": "as §3"}, "MOOVA (Monochoria)": {"system": "MOOVA (Monochoria)", "experiment": "Preemergence weed control under flooded paddy conditions", "assay_type": "in vivo, Monochoria vaginalis", "conditions": "rated 3-4 weeks after treatment", "outline": "as §2"}, "[10]": {"system": "TRZAWR (Wheat, Winter, cv Riband)", "experiment": "Postemergence herbicidal evaluation", "assay_type": "in vivo, Triticum aestivum", "conditions": "postemergence", "outline": "as §3"}, "ABUTH (Velvetleaf)": {"system": "ABUTH (Velvetleaf)", "experiment": "Preemergence herbicidal evaluation", "assay_type": "in vivo, Abutilon theophrasti", "conditions": "preemergence, rated 4-5 weeks after treatment, 0-9 scale", "outline": "as §1"}, "[11]": {"system": "CHEAL (Lambsquarters, Common)", "experiment": "Postemergence herbicidal evaluation", "assay_type": "in vivo, Chenopodium album", "conditions": "postemergence", "outline": "as §3"}, "ECHCG (Barnyardgrass)": {"system": "ECHCG (Barnyardgrass)", "experiment": "Postemergence herbicidal evaluation", "assay_type": "in vivo, Echinochloa crus-galli", "conditions": "postemergence", "outline": "as §3"}, "AMBEL (Ragweed, Common) [12]": {"system": "AMBEL (Ragweed, Common)", "experiment": "Postemergence herbicidal evaluation", "assay_type": "in vivo, Ambrosia artemisifolia", "conditions": "postemergence", "outline": "as §3"}}, "data": [{"smiles": "CCOC(=O)CN1C(=O)C(CC(=O)OC(C)C(=O)OCC)S/C1=N/c1cc(-n2c(=O)cc(C(F)(F)F)n(C)c2=O)c(F)cc1Cl", "note": "(stereo not drawn) [Compound 87]", "values": [{"measurement": "ORYSAT rating", "setting": "ORYSAT (Rice, Tebonnet); 0.1250 kg/ha", "result": 0.0}, {"measurement": "ORYSAT rating", "setting": "ORYSAT (Rice, Tebonnet); 0.2500 kg/ha", "result": 0.0}, {"measurement": "ORYSAT rating", "setting": "ORYSAT (Rice, Tebonnet); 0.5000 kg/ha", "result": 0.0}, {"measurement": "AMBEL rating", "setting": "AMBEL (Ragweed, Common) [1]; 0.1250 kg/ha", "result": 0.0}, {"measurement": "AMBEL rating", "setting": "AMBEL (Ragweed, Common) [1]; 0.2500 kg/ha", "result": 0.0}, {"measurement": "AMBEL rating", "setting": "AMBEL (Ragweed, Common) [1]; 0.5000 kg/ha", "result": 9.0}, {"measurement": "CASOB rating", "setting": "CASOB (Sicklepod) [2]; 0.1250 kg/ha", "result": 0.0}, {"measurement": "CASOB rating", "setting": "CASOB (Sicklepod) [2]; 0.2500 kg/ha", "result": 0.0}, {"measurement": "CASOB rating", "setting": "CASOB (Sicklepod) [2]; 0.5000 kg/ha", "result": 2.0}, {"measurement": "GLXMAW rating", "setting": "[3]; 0.1250 kg/ha", "result": 0.0}, {"measurement": "GLXMAW rating", "setting": "[3]; 0.2500 kg/ha", "result": 4.0}, {"measurement": "GLXMAW rating", "setting": "[3]; 0.5000 kg/ha", "result": 5.0}, {"measurement": "SAGPY herbicidal effect rating", "setting": "[4]; 0.0313 kg/ha", "result": 0.0}, {"measurement": "SAGPY herbicidal effect rating", "setting": "[4]; 0.0625 kg/ha", "result": 4.0}, {"measurement": "SAGPY herbicidal effect rating", "setting": "[4]; 0.1250 kg/ha", "result": 4.0}, {"measurement": "SAGPY herbicidal effect rating", "setting": "[4]; 0.2500 kg/ha", "result": 5.0}, {"measurement": "SAGPY herbicidal effect rating", "setting": "[4]; 0.5000 kg/ha", "result": 7.0}, {"measurement": "CHEAL rating", "setting": "[5]; 0.1250 kg/ha", "result": 4.0}, {"measurement": "CHEAL rating", "setting": "[5]; 0.2500 kg/ha", "result": 9.0}, {"measurement": "CHEAL rating", "setting": "[5]; 0.5000 kg/ha", "result": 9.0}, {"measurement": "CASOB herbicidal rating", "setting": "CASOB (Sicklepod) [6]; rate 0.0156 kg/ha", "result": 0.0}, {"measurement": "CASOB herbicidal rating", "setting": "CASOB (Sicklepod) [6]; rate 0.0313 kg/ha", "result": 0.0}, {"measurement": "CASOB herbicidal rating", "setting": "CASOB (Sicklepod) [6]; rate 0.0625 kg/ha", "result": 0.0}, {"measurement": "CASOB herbicidal rating", "setting": "CASOB (Sicklepod) [6]; rate 0.1250 kg/ha", "result": 2.0}, {"measurement": "CASOB herbicidal rating", "setting": "CASOB (Sicklepod) [6]; rate 0.2500 kg/ha", "result": 9.0}, {"measurement": "IPOHE rating", "setting": "[7]; 0.1250 kg/ha", "result": 1.0}, {"measurement": "IPOHE rating", "setting": "[7]; 0.2500 kg/ha", "result": 5.0}, {"measurement": "IPOHE rating", "setting": "[7]; 0.5000 kg/ha", "result": 6.0}, {"measurement": "IPOHE herbicidal rating", "setting": "[8]; rate 0.0156 kg/ha", "result": 9.0}, {"measurement": "IPOHE herbicidal rating", "setting": "[8]; rate 0.0313 kg/ha", "result": 9.0}, {"measurement": "IPOHE herbicidal rating", "setting": "[8]; rate 0.0625 kg/ha", "result": 9.0}, {"measurement": "IPOHE herbicidal rating", "setting": "[8]; rate 0.1250 kg/ha", "result": 9.0}, {"measurement": "IPOHE herbicidal rating", "setting": "[8]; rate 0.2500 kg/ha", "result": 9.0}, {"measurement": "GLXMAW herbicidal rating", "setting": "[9]; rate 0.0156 kg/ha", "result": 4.5}, {"measurement": "GLXMAW herbicidal rating", "setting": "[9]; rate 0.0313 kg/ha", "result": 5.5}, {"measurement": "GLXMAW herbicidal rating", "setting": "[9]; rate 0.0625 kg/ha", "result": 7.5}, {"measurement": "GLXMAW herbicidal rating", "setting": "[9]; rate 0.1250 kg/ha", "result": 8.0}, {"measurement": "GLXMAW herbicidal rating", "setting": "[9]; rate 0.2500 kg/ha", "result": 9.0}, {"measurement": "MOOVA herbicidal effect rating", "setting": "MOOVA (Monochoria); 0.0313 kg/ha", "result": 9.0}, {"measurement": "MOOVA herbicidal effect rating", "setting": "MOOVA (Monochoria); 0.0625 kg/ha", "result": 9.0}, {"measurement": "MOOVA herbicidal effect rating", "setting": "MOOVA (Monochoria); 0.1250 kg/ha", "result": 9.0}, {"measurement": "MOOVA herbicidal effect rating", "setting": "MOOVA (Monochoria); 0.2500 kg/ha", "result": 9.0}, {"measurement": "MOOVA herbicidal effect rating", "setting": "MOOVA (Monochoria); 0.5000 kg/ha", "result": 9.0}, {"measurement": "TRZAWR herbicidal rating", "setting": "[10]; rate 0.0156 kg/ha", "result": 2.5}, {"measurement": "TRZAWR herbicidal rating", "setting": "[10]; rate 0.0313 kg/ha", "result": 3.0}, {"measurement": "TRZAWR herbicidal rating", "setting": "[10]; rate 0.0625 kg/ha", "result": 4.5}, {"measurement": "TRZAWR herbicidal rating", "setting": "[10]; rate 0.1250 kg/ha", "result": 4.5}, {"measurement": "TRZAWR herbicidal rating", "setting": "[10]; rate 0.2500 kg/ha", "result": 6.0}, {"measurement": "ABUTH rating", "setting": "ABUTH (Velvetleaf); 0.1250 kg/ha", "result": 3.0}, {"measurement": "ABUTH rating", "setting": "ABUTH (Velvetleaf); 0.2500 kg/ha", "result": 9.0}, {"measurement": "ABUTH rating", "setting": "ABUTH (Velvetleaf); 0.5000 kg/ha", "result": 9.0}, {"measurement": "CHEAL herbicidal rating", "setting": "[11]; rate 0.0156 kg/ha", "result": 0.0}, {"measurement": "CHEAL herbicidal rating", "setting": "[11]; rate 0.0313 kg/ha", "result": 0.0}, {"measurement": "CHEAL herbicidal rating", "setting": "[11]; rate 0.0625 kg/ha", "result": 3.0}, {"measurement": "CHEAL herbicidal rating", "setting": "[11]; rate 0.1250 kg/ha", "result": 4.0}, {"measurement": "CHEAL herbicidal rating", "setting": "[11]; rate 0.2500 kg/ha", "result": 9.0}, {"measurement": "ECHCG herbicidal rating", "setting": "ECHCG (Barnyardgrass); rate 0.0156 kg/ha", "result": 0.0}, {"measurement": "ECHCG herbicidal rating", "setting": "ECHCG (Barnyardgrass); rate 0.0313 kg/ha", "result": 0.0}, {"measurement": "ECHCG herbicidal rating", "setting": "ECHCG (Barnyardgrass); rate 0.0625 kg/ha", "result": 2.0}, {"measurement": "ECHCG herbicidal rating", "setting": "ECHCG (Barnyardgrass); rate 0.1250 kg/ha", "result": 9.0}, {"measurement": "ECHCG herbicidal rating", "setting": "ECHCG (Barnyardgrass); rate 0.2500 kg/ha", "result": 9.0}, {"measurement": "AMBEL herbicidal rating", "setting": "AMBEL (Ragweed, Common) [12]; rate 0.0156 kg/ha", "result": 0.0}, {"measurement": "AMBEL herbicidal rating", "setting": "AMBEL (Ragweed, Common) [12]; rate 0.0313 kg/ha", "result": 4.0}, {"measurement": "AMBEL herbicidal rating", "setting": "AMBEL (Ragweed, Common) [12]; rate 0.0625 kg/ha", "result": 7.0}, {"measurement": "AMBEL herbicidal rating", "setting": "AMBEL (Ragweed, Common) [12]; rate 0.1250 kg/ha", "result": 9.0}, {"measurement": "AMBEL herbicidal rating", "setting": "AMBEL (Ragweed, Common) [12]; rate 0.2500 kg/ha", "result": 9.0}]}]}
